Data set [1] relates to passive cutaneous anaphylaxis. The data set is described as follows: passive cutaneous anaphylaxis test (P.C.A.) on rats, oral administration. The data set is classed as in vivo, rat (SLC Wister). The note with it: 0.5 h, rat, 30 mg/kg, antigen 30 minutes after administration, read-out: Percent inhibition (%). The method, then: Various 5-hydroxy-quinolopyran-4-one-2-carboxylic acid esters in terms of the R group represented by the general formula [I] were prepared. […] In order to estimate the efficacy of each compound as an anti-allergic antasthmatic, the efficacy was evaluated according to a passive cutaneous anaphylaxis test (P.C.A.) on rats.
To SLC Wister rats were administered intracutaneously egg white albumin recrystallized 5 times and Bodetallapertussis Vaccine, and serum was collected after 13 days from the rats. […] A physiological salt solution in which egg white albumin and a dye (Evans' blue) were dissolved was administered intravenously, 30 minutes after the oral administration, to the rats; and 30 minutes thereafter the back skins of the rats were peeled off. The dye that transuded from the peeled skin was extracted with Na2 SO4 and acetone, and the quantities of the dye were measured by colorimetry at 620 m μ.

The test system of data set [2] is passive cutaneous anaphylaxis. The data set is described as follows: duration of action in the passive cutaneous anaphylaxis test of the rats, interval between oral administration and antigen varied. The data set is classed as in vivo, rat (SLC Wister). The following applies: 30 mg/kg. As for the experimental part:
To SLC Wister rats were administered intracutaneously egg white albumin recrystallized 5 times and Bodetallapertussis Vaccine, and serum was collected after 13 days from the rats. […] The serum was diluted 128 times and it was then administered intracutaneously to the back of the rats. After 48 hours, the compounds of the present invention in the quantities shown in Table 1 which had been suspended in 1% tragacanth solution were administered orally to the rats. A physiological salt solution in which egg white albumin and a dye (Evans' blue) were dissolved was administered intravenously, 30 minutes after the oral administration, to the rats; and 30 minutes thereafter the back skins of the rats were peeled off. The dye that transuded from the peeled skin was extracted with Na2 SO4 and acetone, and the quantities of the dye were measured by colorimetry at 620 m μ.
In the above-described passive cutaneous anaphylaxis test of the rats, the intervals between the oral administration of the present compounds and the administration of egg white albumin and the dye were variously changed to observe the changes in the effect of the compounds depending upon the intervals.
As a representative compound of the present invention, 2-methyl-1-pentyl ester of 7,8-dimethyl-5-hydroxy-quinolo[4,3-b]pyran-4-one-2-carboxylic acid was used. The percent inhibition is shown in Table 2 when the compound was orally administered in a ratio of 30 mg/kg.

For data set [3] the following is noted: cited from earlier work.
In data set [4] the test system is allergic asthma. The note with it: Cox et al; cited from earlier work.

As for `CCCC(C)COC(=O)c1cc(=O)c2c(O)nc3c(C)c(C)ccc3c2o1` (stereo not drawn) [2-methyl-1-pentyl ester of 7,8-dimethyl-5-hydroxy-quinolo[4,3-b]pyran-4-one-2-carboxylic acid], the inhibition in vivo at 30 mg/kg in data set [1] came to 97.9%. Also, the “Percent inhibition (%)” value is 96.5% in data set [2] (period of time 10 min.); 98.5% in data set [2] (period of time 20 min.); 95.0% in data set [2] (period of time 30 min.); 93.0% in data set [2] (period of time 40 min.); 92.5% in data set [2] (period of time 1 hr.); 72.5% in data set [2] (period of time 2 hrs.). For the same compound, the “Percent inhibition (%)” value in data set [2] (period of time 3 hrs.) was 61.5%; in data set [2] (period of time 4 hrs.), 53.0%.
Consider `O=C(O)c1cc(=O)c2c(OCC(O)COc3cccc4oc(C(=O)O)cc(=O)c34)cccc2o1` [disodium cromoglycate], for which the “absorption via oral administration” value in data set [3] is reported as “cannot be absorbed via oral administration”. Besides, the “effectiveness for allergic asthma” value in data set [4] is “effective for allergic asthma”.
For `CCCCCOC(=O)c1cc(=O)c2c(O)nc3c(C)c(C)ccc3c2o1` [n-pentyl ester of 7,8-dimethyl-5-hydroxy-quinolo[4,3-b]pyran-4-one-2-carboxylic acid, reference compound], in data set [1], the inhibition in vivo at 30 mg/kg stood at 26.5%.

The record behind these values is US4298610A, “Ester derivatives of quinolopyran-4-one-2-carboxylic acids and antiallergic antasthmatics” (priority 1978, dated 1981).
